Consider 21 molecules from ChEMBL document CHEMBL1146635 (Bioorg Med Chem Lett, 2003).

Some results are limits rather than exact numbers.

Data set [1] has as its system Human immunodeficiency virus 1. The experiment in a line: Viral spread inhibitory concentration against HIV-1 strain K-60C in MT-4 human T-lymphoid cells. To be noted: Human immunodeficiency virus 1, T-lymphoid; read-out: CIC95. It is filed as functional.
The subject of a further data set is MT4. The experiment in a line: Viral spread inhibitory concentration against HIV-1 strain V-18C in MT-4 human T-lymphoid cells. It is filed as functional. To be noted: read-out: CIC95.
The subject of data set [2] is Human immunodeficiency virus 1. The experiment in a line: Viral spread inhibitory concentration against HIV-1 strain NL4-3 in MT-4 human T-lymphoid cells. The class given is functional. To be noted: Human immunodeficiency virus 1, T-lymphoid; read-out: CIC95.
Data set [3] is described as follows: Plasma clearance in human liver microsomes. The class given is ADME, Microsome.
Data set [4] deals with Human immunodeficiency virus 1. The experiment in a line: Viral spread inhibitory concentration against HIV-1 strain Q-60C in MT-4 human T-lymphoid cells. It is filed as functional. Conditions: Human immunodeficiency virus 1, T-lymphoid; read-out: CIC95.
Data set [5] concerns the target T1, Human immunodeficiency virus type 1 protease (Human immunodeficiency virus 1, UniProt Q72874). Description: In vitro inhibition of HIV-1 protease (NL4-3 strain).
The next data set addresses Cytochrome P450 3A4 (Homo sapiens, UniProt P08684). The experiment in a line: In vitro inhibition of Cytochrome P450 3A4. It is filed as ADME.
Data set [6] can be described thus: Area under curve determined in dog at a dose of 10 mg/kg by oral administration along with […] (10 mg/kg). Conditions: in vivo.
The nature of data set [7]: Area under curve determined in dog at a dose of 10 mg/kg by oral administration. To be noted: in vivo. The class given is ADME, organism-based, Canis lupus familiaris. Further details: dose 10 mg/kg, route oral.
Data set [8] can be described thus: Cmax value determined in dog at a dose of 10 mg/kg by oral administration. It is filed as ADME, organism-based, Canis lupus familiaris. Also on record: dose 10 mg/kg, route oral. To be noted: in vivo.
In data set [9] the target is T1, Human immunodeficiency virus type 1 protease. Description: Inhibitory activity against HIV-1 protease (K-60C strain).
Data set [10] shares this target. The experiment in a line: Inhibitory activity against HIV-1 protease (V-18C strain).
For the next data set, the target named is Cytochrome P450 2D6 (Homo sapiens, UniProt P10635). Description: In vitro inhibition of Cytochrome P450 2D6. It is filed as ADME.
Cytochrome P450 2D6, sequence (P10635 whole entry): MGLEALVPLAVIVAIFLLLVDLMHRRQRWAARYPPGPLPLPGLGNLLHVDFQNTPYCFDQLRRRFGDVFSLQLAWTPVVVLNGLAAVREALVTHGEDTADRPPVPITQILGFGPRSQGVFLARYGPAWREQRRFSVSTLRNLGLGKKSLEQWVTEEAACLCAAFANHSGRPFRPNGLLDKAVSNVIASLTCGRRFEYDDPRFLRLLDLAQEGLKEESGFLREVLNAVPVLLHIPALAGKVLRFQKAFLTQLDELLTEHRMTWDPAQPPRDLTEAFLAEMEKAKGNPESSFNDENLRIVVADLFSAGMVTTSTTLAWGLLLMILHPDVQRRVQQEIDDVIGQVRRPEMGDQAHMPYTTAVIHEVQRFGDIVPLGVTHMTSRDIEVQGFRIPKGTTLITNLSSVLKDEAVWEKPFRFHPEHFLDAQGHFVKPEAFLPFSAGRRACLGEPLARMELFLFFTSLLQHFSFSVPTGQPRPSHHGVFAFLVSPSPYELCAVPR
Data set [11] has as its target T1, Human immunodeficiency virus type 1 protease. The experiment in a line: Inhibitory activity against HIV-1 protease (Q-60C strain).
For a further data set, the system named is Canis familiaris. Description: Cmax value determined in dog at a dose of 10 mg/kg by oral administration along with indinavir (10 mg/kg). Conditions: in vivo.
Data set [12] can be described thus: Cmax value determined in dog at a dose of 5 mg/kg by oral administration. The class given is ADME, organism-based, Canis lupus familiaris. Further details: dose 5 mg/kg, route oral. Conditions: in vivo.
A short description of data set [13]: Cmax value determined in dog at a dose of […] by oral administration along with […] (10 mg/kg). It is filed as ADME, organism-based, Canis lupus familiaris. Also on record: route oral. Conditions: in vivo.

Cytochrome P450 3A4, sequence (P08684 whole entry): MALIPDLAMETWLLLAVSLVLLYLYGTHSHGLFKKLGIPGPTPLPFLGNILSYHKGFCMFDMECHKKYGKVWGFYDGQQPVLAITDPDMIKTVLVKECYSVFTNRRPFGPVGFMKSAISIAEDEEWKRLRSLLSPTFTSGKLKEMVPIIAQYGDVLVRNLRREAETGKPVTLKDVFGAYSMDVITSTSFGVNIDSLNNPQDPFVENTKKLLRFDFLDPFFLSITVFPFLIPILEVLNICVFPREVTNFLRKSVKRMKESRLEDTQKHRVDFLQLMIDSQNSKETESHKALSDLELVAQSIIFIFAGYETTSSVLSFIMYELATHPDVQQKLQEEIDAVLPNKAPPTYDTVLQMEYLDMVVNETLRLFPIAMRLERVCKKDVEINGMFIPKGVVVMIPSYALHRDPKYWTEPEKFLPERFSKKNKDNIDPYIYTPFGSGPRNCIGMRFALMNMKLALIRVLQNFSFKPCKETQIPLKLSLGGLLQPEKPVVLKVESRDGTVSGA

The CLint scaled is the rate of metabolic loss divided by the concentration. Lower therefore signals slow turnover. As a reminder, the IC50 is the concentration that inhibits the measured activity by half. Regarding `O=C(N[C@H]1c2ccccc2OC[C@H]1O)[C@H](Cc1cccnc1)C[C@H](O)CN1CCN(Cc2ccn(-c3ccc(Cl)cc3)c2)C[C@H]1C(=O)NCC(F)(F)F`, the IC95 was 15 nM in data set [1], no more than 8 nM with MT4, no more than 8 nM in data set [2] and no more than 8 nM in data set [4]. The molecule further had an intrinsic clearance (CLint scaled) in data set [3] of 229 mL/min/kg. Also, the concentration for half-maximal inhibition (IC50) worked out at 0.03 nM in [5] and 50 nM on Cytochrome P450 3A4.

`O=C(N[C@H]1c2ccccc2OC[C@H]1O)[C@H](Cc1cccnc1)C[C@H](O)CN1CCN(Cc2ccn(-c3ccc(F)cc3)c2)C[C@H]1C(=O)NCC(F)(F)F`: the IC95 in data set [1], in [2] and in data set [4] was 15 nM throughout. In addition, the half-inhibitory concentration (IC50) in data set [5] was determined as 0.05 nM.

As for `O=C(N[C@H]1c2ccccc2OC[C@H]1O)[C@H](Cc1cccnc1)C[C@H](O)CN1CCN(Cc2ccn(-c3cc(Cl)c(Cl)c(Cl)c3)c2)C[C@H]1C(=O)NCC(F)(F)F`, the IC95 in data set [1] was 31 nM; in the data set with MT4, 15 nM; in data set [2], no more than 8 nM; in data set [4], no more than 8 nM. Further, in [5], the half-inhibitory concentration (IC50) was determined as 0.02 nM.

For `O=C(N[C@H]1c2ccccc2OC[C@H]1O)[C@H](Cc1cccnc1)C[C@H](O)CN1CCN(Cc2ccn(-c3cccc(C(F)(F)F)c3)c2)C[C@H]1C(=O)NCC(F)(F)F`, the values for the IC95 in [1], in [2] and in data set [4] were 31 nM, 15 nM and no more than 8 nM, respectively. In data set [5], the half-maximal inhibitory concentration (IC50) came out at 0.05 nM.

For the molecule `O=C(N[C@H]1c2ccccc2OC[C@H]1O)[C@H](Cc1cccnc1)C[C@H](O)CN1CCN(Cc2ccn(-c3ccccc3F)c2)C[C@H]1C(=O)NCC(F)(F)F`, the values for the IC95 in data set [1], in data set [2] and in [4] were 62 nM, 15 nM and 31 nM, respectively. The molecule also registered an IC50 in [5] of 0.16 nM.

In the case of `O=C(N[C@H]1c2ccccc2OC[C@H]1O)[C@H](Cc1cccnc1)C[C@H](O)CN1CCN(Cc2ccn(-c3cccc(Cl)c3)c2)C[C@H]1C(=O)NCC(F)(F)F`, the IC95 (in [1]; in the data set on MT4; in [2]; in data set [4]) was no more than 8 nM each time. The molecule further returned a CLint scaled in [3] of 307 mL/min/kg. For the same molecule, the IC50 in [5] is 0.05 nM; against Cytochrome P450 3A4, 80 nM.

On to `N#Cc1cccc(-n2ccc(CN3CCN(C[C@@H](O)C[C@@H](Cc4cccnc4)C(=O)N[C@H]4c5ccccc5OC[C@H]4O)[C@H](C(=O)NCC(F)(F)F)C3)c2)c1`, for which the IC95 in data set [1] was 62 nM; in data set [2], 62 nM; in [4], no more than 31 nM. This molecule also returned an IC50 in data set [5] of 0.15 nM.

For orientation: AUC means concentration integrated over time. By Cmax is commonly meant the highest concentration seen after dosing. With `O=C(N[C@H]1c2ccccc2OC[C@H]1O)[C@H](Cc1cccnc1)C[C@H](O)CN1CCN(Cc2ccn(-c3ccc(F)c(F)c3F)c2)C[C@H]1C(=O)NCC(F)(F)F`, the IC95 in data set [1] is 15 nM; in the data set on MT4 it was no more than 8 nM; in data set [2], no more than 8 nM; in data set [4], no more than 8 nM. Besides, the figures for the AUC in data set [6] and in data set [7] were 26.6 µM·h and 4.4 µM·h, respectively. In data set [3], the intrinsic clearance (CLint scaled) came out at 218 mL/min/kg. In data set [8], the concentration peaked (Cmax) at 1.9 µM. The IC50 in data set [5] is 0.05 nM; against Cytochrome P450 3A4, 50 nM.

Take `N#Cc1ccc(-n2ccc(CN3CCN(C[C@@H](O)C[C@@H](Cc4cccnc4)C(=O)N[C@H]4c5ccccc5OC[C@H]4O)[C@H](C(=O)NCC(F)(F)F)C3)c2)cc1`: the IC95 in data set [1] came out at 125 nM; in data set [2] it was 62 nM; in [4] it was 31 nM. The IC50 in [5] stood at 0.1 nM.

As to `O=C(N[C@H]1c2ccccc2OC[C@H]1O)[C@H](Cc1cccnc1)C[C@H](O)CN1CCN(Cc2ccn(-c3ccc(C(F)(F)F)cc3)c2)C[C@H]1C(=O)NCC(F)(F)F`, the IC95 was 15 nM in [1], 15 nM in data set [2] and no more than 8 nM in data set [4]. This molecule also registered an IC50 in data set [5] of 0.04 nM.

`Cc1ccccc1-n1ccc(CN2CCN(C[C@@H](O)C[C@@H](Cc3cccnc3)C(=O)N[C@H]3c4ccccc4OC[C@H]3O)[C@H](C(=O)NCC(F)(F)F)C2)c1`: the IC95 in data set [1] was 125 nM; with MT4, 31 nM; in data set [2], no more than 8 nM; in data set [4], 31 nM. In data set [5], this molecule displayed an IC50 of 0.16 nM.

In the case of `O=C(N[C@H]1c2ccccc2OC[C@H]1O)[C@H](Cc1cccnc1)C[C@H](O)CN1CCN(Cc2ccn(-c3ccccc3Cl)c2)C[C@H]1C(=O)NCC(F)(F)F`, the IC95 in data set [1] was 62 nM; in the data set on MT4 it was 31 nM; in data set [2], no more than 8 nM; in [4], 31 nM. This molecule had an IC50 in data set [5] of 0.18 nM.

Consider `O=C(N[C@H]1c2ccccc2OC[C@H]1O)[C@H](Cc1cccnc1)C[C@H](O)CN1CCN(Cc2ccn(-c3ccc(Cl)c(Cl)c3)c2)C[C@H]1C(=O)NCC(F)(F)F`, for which the IC95 is 31 nM in data set [1], 15 nM in the data set with MT4, 15 nM in [2] and no more than 8 nM in data set [4]. The molecule further returned a half-maximal inhibitory concentration (IC50) in data set [5] of 0.02 nM.

As to `O=C(N[C@H]1c2ccccc2OC[C@H]1O)[C@H](Cc1cccnc1)C[C@H](O)CN1CCN(Cc2ccn(-c3cccc(F)c3)c2)C[C@H]1C(=O)NCC(F)(F)F`, the IC95 is 31 nM in data set [1], 15 nM in [2] and 15 nM in data set [4]. The same molecule displayed a concentration for half-maximal inhibition (IC50) in data set [5] of 0.05 nM.

With `Cc1ccc(-n2ccc(CN3CCN(C[C@@H](O)C[C@@H](Cc4cccnc4)C(=O)N[C@H]4c5ccccc5OC[C@H]4O)[C@H](C(=O)NCC(F)(F)F)C3)c2)cc1`, the IC95 is 15 nM in data set [1], 15 nM in the data set with MT4, 15 nM in data set [2] and no more than 8 nM in data set [4]. This molecule registered an IC50 in [5] of 0.06 nM.

As for `O=C(N[C@H]1c2ccccc2OC[C@H]1O)[C@H](Cc1cccnc1)C[C@H](O)CN1CCN(Cc2ccn(-c3ccccc3)c2)C[C@H]1C(=O)NCC(F)(F)F`, the IC95 in data set [1] is 31 nM; in the data set on MT4, no more than 8 nM; in data set [2], 15 nM; in data set [4], no more than 8 nM. In addition, the IC50 stood at 2.7 nM in data set [9]; 2.49 nM in data set [10]; 12000 nM against Cytochrome P450 2D6; 0.11 nM in [5]; 400 nM at Cytochrome P450 3A4. In data set [3], this molecule registered a CLint scaled of 332 mL/min/kg. Besides, in data set [7], the AUC was 7 µM·h. The same molecule displayed a Cmax in [8] of 5.3 µM.

Consider `Cc1cccc(-n2ccc(CN3CCN(C[C@@H](O)C[C@@H](Cc4cccnc4)C(=O)N[C@H]4c5ccccc5OC[C@H]4O)[C@H](C(=O)NCC(F)(F)F)C3)c2)c1`, for which the IC95 in data set [1] was 62 nM; in the data set with MT4, no more than 8 nM; in data set [2] it was no more than 8 nM; in data set [4] it was no more than 8 nM. The midpoint of inhibition in data set [5], the IC50, lay at 0.1 nM.

As for `N#Cc1ccccc1-n1ccc(CN2CCN(C[C@@H](O)C[C@@H](Cc3cccnc3)C(=O)N[C@H]3c4ccccc4OC[C@H]3O)[C@H](C(=O)NCC(F)(F)F)C2)c1`, the IC95 came to 250 nM in data set [1], 46 nM in data set [2] and 62 nM in data set [4]. This molecule also came in with a 50% inhibitory concentration (IC50) in data set [5] of 0.46 nM.

For `O=C(N[C@H]1c2ccccc2OC[C@H]1O)[C@H](Cc1cccnc1)C[C@H](O)CN1CCN(Cc2ccn(-c3ccccc3C(F)(F)F)c2)C[C@H]1C(=O)NCC(F)(F)F`, the IC95 in [1] was 500 nM; in data set [2], 38 nM; in data set [4], 500 nM. This molecule had a half-inhibitory concentration (IC50) in [5] of 1.32 nM.

Consider `O=C(N[C@H]1c2ccccc2OC[C@H]1O)[C@H](Cc1cccnc1)C[C@H](O)CN1CCN(Cc2ccc(-c3ccccc3)o2)C[C@H]1C(=O)NCC(F)(F)F`, for which the IC95 (in [1]; in the data set with MT4; in data set [2]; in [4]) was no more than 8 nM each time. For the same molecule, the 50% inhibitory concentration (IC50) turned out to be 0.07 nM in data set [11], 0.06 nM in data set [9] and 0.15 nM in [10]. The peak concentration (Cmax) came to 6.1 µM in the data set with Canis familiaris and 0.1 µM in [12]. The same molecule showed a CLint scaled in data set [3] of 238 mL/min/kg.

Turning to `CC(C)(C)NC(=O)[C@@H]1CN(Cc2cccnc2)CCN1C[C@@H](O)C[C@@H](Cc1ccccc1)C(=O)N[C@H]1c2ccccc2C[C@H]1O.O`, the IC95 in [1] is greater than 1000 nM; in the data set with MT4 it was greater than 1000 nM; in data set [2], 50 nM; in [4], greater than 1000 nM. The AUC in data set [6] amounted to 12.5 µM·h. This molecule also returned a Cmax in data set [13] of 11.4 µM.
